Assays:
Assay type in all cases: cell-based, human
3TP-Lux reporter = assay: 3TP-Lux luciferase reporter assay; settings: 100 pM TGFβ
Description: MDA-MB-231 cells were seeded in 24-well plates at approximately 6×10^4 cells/well one day prior to transfections. Cells were co-transfected with the PAI1-promoter-driven firefly luciferase Reporter (3TP-Lux) and the CMV-Renilla luciferase control reporter constructs. 18 h post transfection, cells were serum-starved (0.2% FBS containing DMEM) for 4 h and then incubated in fresh low-serum (0.2% FBS containing DMEM) containing media in the absence or presence of 100 pM TGFβ, 100 μg/mL rhPRG4 alone or together and left overnight. Lysates were prepared and analyzed for luciferase activity using a commercially available dual luciferase assay kit (Promega, Canada). Arbitrary luciferase activity (relative light units) values were normalized to Renilla luciferase activity to account for variations in transfection efficiency. For each transfection, percent increase of PAI1 promoter driven luciferase reporter gene expression was also determined and expressed relative to luciferase activity of the respective basal condition lysates. Each experimental condition was carried out in triplicate.

CD44 = CD44 protein abundance in MDA-MB-231 cells (immunoblot, immunofluorescence); settings: for protein abundance of CD44, immunoblotting: 100 pM TGFβ, 100 μg/mL rhPRG4 in the absence or presence of TGFβ; for CD44 immunostaining signal in organoids: 8 day-old organoids, absence or presence of TGFβ
Description: For immunofluorescence analysis of 3D-organoids, 600 MDA-MB-231 cells were grown within 80 μL of 50% Matrigel on top of 80 μL of 33% Matrigel coat in each well of ultra-low attachment 8-well chamber slides (Millipore-Sigma, USA). After DIC imaging on Day 8, the live multicellular structures were fixed with 4% formaldehyde, followed by permeabilization using 0.5% ice-cold Triton X-100 solution and blocking using 10% bovine serum albumin (BSA) in phosphate-buffered saline (PBS). For immunofluorescence analysis of monolayer cell culture, cells were seeded onto wells of a Falcon 8-well chamber culture slides (Corning Incorporated, USA), followed by fixing and permeabilization as described for the 3D cultures, and blocking with 5% BSA and 5% calf serum in PBS. Laminin and CD44 in cells were visualized by subjecting the three-dimensional or monolayer cultures to indirect immunofluorescence using a rat anti-laminin antibody (Abcam, Canada) and rat anti-CD44 antibody (Thermo Fisher, Canada) as the primary antibody, respectively, and Alexa 647-conjugated anti-rat IgG (ThermoFisher, Canada) as the secondary antibody. Actin in cells was visualized by incubating the fixed cultures with tetramethylrhodamine isothiocyanate (TRITC)-conjugated phalloidin (Millipore-Sigma, Canada). The DNA binding dye bisbenzimide (Hoechst 33342; Invitrogen, Canada) was used to detect nuclei. For CD44 knockdown analysis, the vector or CD44 shRNA transfected cells were identified by GFP signal. Immunofluorescence images were captured using an epifluorescence microscope with a 40× objective lens (Olympus Bx WI Confocal Microscope, Canada). Exposure times for laminin, actin, nuclei and GFP-specific signals were kept constant in each experiment. For each condition, 3 colonies/fields per experiment were captured, which were chosen as representative of the stained cells within each slide per experiments. Each experiment was repeated two independent times.
(§1) Cells were washed with PBS to remove all growth media. Appropriate volume of TNTE lysis buffer (50 mM Tris, 150 mM NaCl, 1 mM EDTA, 0.5% [v/v] Triton-X-100) containing protease and phosphatase inhibitors, was added to the cell monolayer and incubated at 4° C. under vigorous shaking for 20 minutes. Lysates were then collected in microcentrifuge tubes and centrifuged at 13,000 g for 10 minutes at 4° C. 5 μL of the lysate were subjected to protein concentration determination using Bradford-based protein assays (Bio-Rad Laboratories, Canada). Lysates were boiled for 3 minutes at 95° C. in dithiothreitol (DTT)-containing Laemmli sample buffer. […] Densitometric analyses were performed using Quantity One software (Bio-Rad Laboratories, Canada).

HAS2 = HAS2 protein abundance in MDA-MB-231 cells (immunoblot); settings: 100 pM TGFβ; 100 μg/mL rhPRG4 in the absence or presence of TGFβ
Description: as §1, with “buffer. For immunoprecipitation analyses, lysates were incubated with appropriate antibodies at 4° C. with gentle rocking for 3 h after which immunocomplexes were incubated with Protein G-conjugated agarose beads (UBPBio, USA) at 4° C. with gentle rocking for 3 h. Finally, the beads were washed with TNTE wash buffer (0.1% [v/v] Triton-X-100) and boiled for 5 minutes at 95° C. in dithiothreitol (DTT) containing Laemmli sample buffer. Immunoprecipitates and input lysates were then resolved by sodium dodecyl sulfate-polyacrylamide electrophoresis (SDS-PAGE) and transferred onto a nitrocellulose membrane (Bio-Rad Laboratories, Canada).” for “buffer.”

HLE and HLF cells = assay: HCC trans-well migration assay on fibronectin; settings: soluble rhPRG4 25 μg/ml; 16 hours
Excerpt: Stable CD44 silencing: HLE and HLF cell lines were transduced with lentiviral particles carrying control non-targeting (V), or specific CD44-targeting shRNA sequences (A to D), and selected with puromycin dihydrochloride (Thermo Fisher Scientific) to obtain stable CD44 silencing, according to manufacturer instructions (OriGene Technologies, Inc., Rockville, Md. 20850, USA). Control-shRNA sequence (V) and CD44-shRNA sequence B were used in all the experiments involving CD44 downregulation.
Trans-well migration assay: The assay was performed as previously described. (Dituri et al., PLoS One 2013. doi:10.1371/journal.pone.0067109). Briefly, 15,000 cells were loaded onto the top chamber of the trans-well, whose membrane was previously coated with fibronectin on the lower surface, and left to migrate for 16 hours in the presence/absence of rhPRG4 (25 μg/ml) diluted in serum-free DMEM medium (+0.5% BSA) in the lower chamber. The cells were then paraformaldehyde-fixed and stained with crystal violet. Five fields/membrane were captured and the number of cells/field was measured.

Row | Substance | 3TP-Lux reporter activity, TGFβ alone (3TP-Lux reporter) | protein abundance of CD44, immunoblotting (CD44) | CD44 immunostaining signal in organoids (CD44) | protein abundance of HAS2, immunoblotting (HAS2) | TGFβ-induced 3TP-Lux reporter activity (3TP-Lux reporter; 100 μg/mL rhPRG4, overnight, 0.2% FBS) | migration of cells on fibronectin (HLE and HLF cells)
1 | TGFβ: recombinant human mature transforming growth factor beta (R&D systems) [reference compound] | significant induction of 3TP-Lux reporter activity | promoted the protein abundance of CD44 | enhanced the CD44-immnostaining signal | increased the protein abundance of HAS2 | – | –
2 | rhPRG4: full-length recombinant human PRG4 (lubricin) glycoprotein produced by CHO-M cells; residues 25-1404 of SEQ ID NO:1 | – | reduced the protein abundance of CD44 | reduced this signal | suppressed the protein abundance of HAS2 | did not alter TGFβ-induced 3TP-Lux reporter activity | impairs the migration
